Data on one compound can be found in patent US20060194766A1, “Combinations comprising anti-epileptic drugs for the treatment of neurological disorders” (priority 2003, published 2006).

For this experiment, the system named is MES-induced seizures. The experiment is described as follows: Maximal electroshock test (MES)-induced seizures in mice. The following applies: for % animals protected from seizures: pre-treatment 1 h. It counts as in vivo. As to the method: Generalized tonic-clonic seizures are induced in mice by a maximal electroshock test (MES). In brief, seizures of the hind extremities of male Tif: MAGf (SPF) mice (19-25 g) are induced by passing alternating electrical current (50 Hz, 18 mA, 0.2 s) through temporal electrodes. The compounds and carbamazepine are suspended in 0.5% methyl cellulose for p.o. administration (doses for the compounds: 3.125, 6.25, 12.5 and 20.0 mg/kg p.o). The pre-treatment period for all compounds is 1 h. Ten animals per dose are used. For each experiment one group serves as a negative control (placebo). The number of animals protected from tonic hind limb extension seizure is determined in each dose and combination group.

As to `NC(=O)N1c2ccccc2C=Cc2ccccc21` [Carbamazepine], the “% animals protected from seizures” value is given as 40% (Carbamazepine 7.5 mg/kg combined with Compound 1, 3.125 mg/kg p.o.); 0% (Carbamazepine 7.5 mg/kg p.o. combined with placebo); 80% (Carbamazepine 12.5 mg/kg combined with Compound 1, 3.125 mg/kg p.o.); 90% (Carbamazepine 12.5 mg/kg combined with Compound 1, 6.25 mg/kg p.o.); 100% (Carbamazepine 20.0 mg/kg combined with Compound 1, 6.25 mg/kg p.o.); 80% (Carbamazepine 20.0 mg/kg p.o. combined with placebo). In addition, the “% of the mice protected” value (carbamazepine combined with placebo, doses of 7.5 to 20.0 mg/kg p.o.) is “up to 80%”.
